In US9708314B2, “Heterocyclic amide compound” (NISSAN CHEMICAL INDUSTRIES, LTD., priority 2013, dated 2017):

Tests used:
Test in all cases: Test Example 1: herbicidal activity, application before weed generation in submerged conditions
Assay type in all cases: in vivo
Conditions in all cases: Application herbicide amount 320 g/ha; Seventeenth Table
Scirpus juncoides = test system: Scirpus juncoides
In short: (§1)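 Alluvial soil in Wagner pots flooded to 4 cm water depth; weed seeds sown and 2.5 leaf stage rice seedlings transplanted. Emulsion diluted in water applied to water surface on sowing day at stated g/ha. Greenhouse 25° C. to 30° C.; effects scored 0–5 by herbicidal ratio after three weeks.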

Monochoria vaginalis = test system: Monochoria vaginalis
In short: as §1

[1] = test system: Echinochloa oryzacola Vasing.
In short: as §1

Row | SMILES | B: Scirpus juncoides (herbicidal effect grade) (Scirpus juncoides) | C: Monochoria vaginalis (herbicidal effect grade) (Monochoria vaginalis) | A: Echinochloa oryzicola Vasing. (herbicidal effect grade) [1]
1 | COc1ccc(CSc2nnc3c(C(=O)Nc4nnnn4C)ccc(C(F)(F)F)n23)cc1 [2-077] | 3 (Herbicidal ratio of 40% or more and less than 70%) | 3 (Herbicidal ratio of 40% or more and less than 70%) | 5 (Herbicidal ratio of 90% or more (almost completely withered))
2 | Cn1nnnc1NC(=O)c1ccc(C(F)(F)F)n2c(N3CCSCC3)nnc12 [2-078] | 4 (Herbicidal ratio of 70% or more and less than 90%) | 2 (Herbicidal ratio of 20% or more and less than 40%) | 5 (Herbicidal ratio of 90% or more (almost completely withered))
3 | COCCN(C)c1nnc2c(C(=O)Nc3nnnn3C)ccc(C(F)(F)F)n12 [2-079] | 5 (Herbicidal ratio of 90% or more (almost completely withered)) | 5 (Herbicidal ratio of 90% or more (almost completely withered)) | 5 (Herbicidal ratio of 90% or more (almost completely withered))
4 | CSCCNc1nnc2c(C(=O)Nc3nnnn3C)ccc(C(F)(F)F)n12 [2-080] | 0 (Herbicidal ratio of 5% or less (almost no effect)) | 0 (Herbicidal ratio of 5% or less (almost no effect)) | 3 (Herbicidal ratio of 40% or more and less than 70%)
5 | Cn1nnnc1NC(=O)c1ccc(C(F)(F)F)n2c(NCC(F)(F)F)nnc12 [2-081] | 3 (Herbicidal ratio of 40% or more and less than 70%) | 4 (Herbicidal ratio of 70% or more and less than 90%) | 4 (Herbicidal ratio of 70% or more and less than 90%)
6 | CC(C)N(C)c1nnc2c(C(=O)Nc3nnnn3C)ccc(C(F)(F)F)n12 [2-082] | 5 (Herbicidal ratio of 90% or more (almost completely withered)) | 5 (Herbicidal ratio of 90% or more (almost completely withered)) | 5 (Herbicidal ratio of 90% or more (almost completely withered))
7 | CN(c1nnc2c(C(=O)Nc3nnnn3C)ccc(C(F)(F)F)n12)C1CCCCC1 [2-083] | 5 (Herbicidal ratio of 90% or more (almost completely withered)) | 4 (Herbicidal ratio of 70% or more and less than 90%) | 5 (Herbicidal ratio of 90% or more (almost completely withered))
8 | Cn1nnnc1NC(=O)c1ccc(C(F)(F)F)n2c(SCC3CC3)nnc12 [2-084] | 5 (Herbicidal ratio of 90% or more (almost completely withered)) | 4 (Herbicidal ratio of 70% or more and less than 90%) | 5 (Herbicidal ratio of 90% or more (almost completely withered))
9 | Cn1nnnc1NC(=O)c1ccc(C(F)(F)F)n2c(SCC3CCCO3)nnc12 (stereo not drawn) [2-085] | 5 (Herbicidal ratio of 90% or more (almost completely withered)) | 4 (Herbicidal ratio of 70% or more and less than 90%) | 5 (Herbicidal ratio of 90% or more (almost completely withered))
10 | Cn1nnnc1NC(=O)c1ccc(C(F)(F)F)n2c(SCC#N)nnc12 [2-086] | 2 (Herbicidal ratio of 20% or more and less than 40%) | 3 (Herbicidal ratio of 40% or more and less than 70%) | 3 (Herbicidal ratio of 40% or more and less than 70%)
11 | Cn1nnnc1NC(=O)c1ccc(C(F)(F)F)n2c(SCC(F)(F)F)nnc12 [2-087] | 5 (Herbicidal ratio of 90% or more (almost completely withered)) | 4 (Herbicidal ratio of 70% or more and less than 90%) | 5 (Herbicidal ratio of 90% or more (almost completely withered))
